Literature values as cited in PMC3401522 (ACS Chemical Biology, 2011).

Tested on: JIP-JNK interaction sites

IC50: 500 nM
Structure (SMILES): O=c1[nH]nc(Sc2ncc([N+](=O)[O-])s2)n1-c1ccc2c(c1)OCCO2 [BI-78D3]
